In ChEMBL document CHEMBL4028801, “A multifactorial approach to hepatobiliary transporter assessment enables improved therapeutic compound development” (Toxicol Sci, 2013):
Structures can show the parent of a compound that is named as a salt.

Legend:
[1] = biological target: T1, ATP-binding cassette sub-family C member 4 (Homo sapiens, UniProt O15439); assay: Inhibition of human MRP4 overexpressed in Sf9 cell membrane vesicles assessed as uptake of [3H]-estradiol-17beta-D-glucuronide in presence of ATP and GSH measured after 20 mins by membrane vesicle transport assay; type: ADME, cell-based
T1 sequence (O15439 whole entry): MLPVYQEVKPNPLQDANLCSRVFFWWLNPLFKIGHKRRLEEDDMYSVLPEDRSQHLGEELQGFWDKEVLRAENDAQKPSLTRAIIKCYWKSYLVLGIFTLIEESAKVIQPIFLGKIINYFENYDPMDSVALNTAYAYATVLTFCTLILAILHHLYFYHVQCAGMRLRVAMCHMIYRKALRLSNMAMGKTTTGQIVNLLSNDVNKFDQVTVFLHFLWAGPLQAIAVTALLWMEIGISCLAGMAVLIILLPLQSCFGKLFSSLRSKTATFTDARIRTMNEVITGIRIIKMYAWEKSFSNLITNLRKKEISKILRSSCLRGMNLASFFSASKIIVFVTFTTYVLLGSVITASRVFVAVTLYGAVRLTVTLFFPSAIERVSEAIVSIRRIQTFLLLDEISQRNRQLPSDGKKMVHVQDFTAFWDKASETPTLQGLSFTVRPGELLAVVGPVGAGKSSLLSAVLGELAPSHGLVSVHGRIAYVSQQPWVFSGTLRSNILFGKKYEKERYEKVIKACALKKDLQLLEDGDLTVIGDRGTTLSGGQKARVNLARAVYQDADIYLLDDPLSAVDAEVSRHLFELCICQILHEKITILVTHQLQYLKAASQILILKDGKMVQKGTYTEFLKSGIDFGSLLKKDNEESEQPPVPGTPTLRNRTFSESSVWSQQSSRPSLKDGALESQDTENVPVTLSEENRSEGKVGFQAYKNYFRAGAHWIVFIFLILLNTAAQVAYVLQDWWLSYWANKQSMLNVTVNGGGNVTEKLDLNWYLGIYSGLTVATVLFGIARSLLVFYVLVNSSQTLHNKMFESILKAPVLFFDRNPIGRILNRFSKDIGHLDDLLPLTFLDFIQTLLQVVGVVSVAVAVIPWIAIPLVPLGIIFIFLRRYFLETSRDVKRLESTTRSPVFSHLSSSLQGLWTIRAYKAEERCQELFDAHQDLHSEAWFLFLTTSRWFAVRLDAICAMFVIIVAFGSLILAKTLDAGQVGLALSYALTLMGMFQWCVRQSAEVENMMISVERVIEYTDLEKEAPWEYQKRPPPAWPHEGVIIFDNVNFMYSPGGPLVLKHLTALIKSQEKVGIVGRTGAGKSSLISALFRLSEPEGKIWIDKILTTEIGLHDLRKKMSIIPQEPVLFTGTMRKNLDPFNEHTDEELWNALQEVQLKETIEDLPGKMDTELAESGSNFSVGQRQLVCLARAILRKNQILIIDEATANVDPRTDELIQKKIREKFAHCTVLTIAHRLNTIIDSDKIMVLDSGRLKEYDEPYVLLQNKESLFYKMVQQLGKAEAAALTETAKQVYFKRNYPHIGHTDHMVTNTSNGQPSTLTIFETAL

[2] = biological target: ATP-binding cassette sub-family C member 3 (Homo sapiens, UniProt O15438); assay: Inhibition of human MRP3 overexpressed in Sf9 insect cell membrane vesicles assessed as uptake of [3H]-estradiol-17beta-D-glucuronide in presence of ATP and GSH measured after 10 mins by membrane vesicle transport assay; type: ADME, cell-based
ATP-binding cassette sub-family C member 3, sequence (O15438 whole entry): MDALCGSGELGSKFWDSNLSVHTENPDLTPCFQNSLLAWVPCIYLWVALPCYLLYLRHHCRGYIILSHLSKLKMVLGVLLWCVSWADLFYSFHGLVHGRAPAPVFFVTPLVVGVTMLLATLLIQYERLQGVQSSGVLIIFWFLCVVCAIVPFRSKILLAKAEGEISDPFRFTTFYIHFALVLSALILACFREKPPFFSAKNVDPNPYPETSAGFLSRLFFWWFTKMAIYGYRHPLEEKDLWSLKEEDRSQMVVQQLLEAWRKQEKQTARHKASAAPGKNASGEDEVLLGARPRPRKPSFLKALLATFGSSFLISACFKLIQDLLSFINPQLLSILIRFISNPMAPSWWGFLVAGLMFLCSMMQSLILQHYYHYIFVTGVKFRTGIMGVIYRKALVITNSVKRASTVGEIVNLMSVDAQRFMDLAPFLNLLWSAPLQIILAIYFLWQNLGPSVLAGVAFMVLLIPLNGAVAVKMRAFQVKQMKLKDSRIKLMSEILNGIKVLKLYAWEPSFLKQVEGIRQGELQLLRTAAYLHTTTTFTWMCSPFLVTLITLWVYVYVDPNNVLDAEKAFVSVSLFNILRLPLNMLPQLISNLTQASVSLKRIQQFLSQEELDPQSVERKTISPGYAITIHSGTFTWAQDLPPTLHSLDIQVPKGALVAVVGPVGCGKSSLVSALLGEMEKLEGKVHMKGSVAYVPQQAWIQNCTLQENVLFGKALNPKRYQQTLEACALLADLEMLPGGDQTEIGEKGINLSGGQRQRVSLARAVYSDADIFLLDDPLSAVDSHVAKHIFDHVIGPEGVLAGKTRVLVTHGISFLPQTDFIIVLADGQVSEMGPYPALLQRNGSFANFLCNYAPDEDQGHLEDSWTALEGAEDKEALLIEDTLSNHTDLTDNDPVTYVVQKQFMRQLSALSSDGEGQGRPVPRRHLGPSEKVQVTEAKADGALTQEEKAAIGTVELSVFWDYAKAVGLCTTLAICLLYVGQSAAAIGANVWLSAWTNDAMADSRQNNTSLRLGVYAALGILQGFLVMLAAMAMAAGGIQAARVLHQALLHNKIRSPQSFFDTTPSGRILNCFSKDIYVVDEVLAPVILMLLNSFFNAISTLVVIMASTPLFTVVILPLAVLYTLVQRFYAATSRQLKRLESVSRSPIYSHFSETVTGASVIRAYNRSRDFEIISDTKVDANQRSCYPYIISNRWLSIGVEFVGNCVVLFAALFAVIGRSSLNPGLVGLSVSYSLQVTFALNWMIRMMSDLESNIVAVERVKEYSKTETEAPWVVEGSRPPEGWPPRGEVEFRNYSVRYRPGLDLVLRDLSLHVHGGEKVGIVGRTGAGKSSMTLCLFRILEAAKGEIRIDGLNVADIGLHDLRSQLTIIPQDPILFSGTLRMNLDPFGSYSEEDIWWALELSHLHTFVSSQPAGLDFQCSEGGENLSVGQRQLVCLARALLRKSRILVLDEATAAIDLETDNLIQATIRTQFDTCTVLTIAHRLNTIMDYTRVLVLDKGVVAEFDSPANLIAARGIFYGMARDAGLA

Bile salt export pump = Bile salt export pump (Homo sapiens, UniProt O95342); assay: Inhibition of human BSEP overexpressed in Sf9 cell membrane vesicles assessed as uptake of [3H]-taurocholate in presence of ATP measured after 15 to 20 mins by membrane vesicle transport assay; type: ADME, cell-based
Bile salt export pump, sequence (O95342 whole entry): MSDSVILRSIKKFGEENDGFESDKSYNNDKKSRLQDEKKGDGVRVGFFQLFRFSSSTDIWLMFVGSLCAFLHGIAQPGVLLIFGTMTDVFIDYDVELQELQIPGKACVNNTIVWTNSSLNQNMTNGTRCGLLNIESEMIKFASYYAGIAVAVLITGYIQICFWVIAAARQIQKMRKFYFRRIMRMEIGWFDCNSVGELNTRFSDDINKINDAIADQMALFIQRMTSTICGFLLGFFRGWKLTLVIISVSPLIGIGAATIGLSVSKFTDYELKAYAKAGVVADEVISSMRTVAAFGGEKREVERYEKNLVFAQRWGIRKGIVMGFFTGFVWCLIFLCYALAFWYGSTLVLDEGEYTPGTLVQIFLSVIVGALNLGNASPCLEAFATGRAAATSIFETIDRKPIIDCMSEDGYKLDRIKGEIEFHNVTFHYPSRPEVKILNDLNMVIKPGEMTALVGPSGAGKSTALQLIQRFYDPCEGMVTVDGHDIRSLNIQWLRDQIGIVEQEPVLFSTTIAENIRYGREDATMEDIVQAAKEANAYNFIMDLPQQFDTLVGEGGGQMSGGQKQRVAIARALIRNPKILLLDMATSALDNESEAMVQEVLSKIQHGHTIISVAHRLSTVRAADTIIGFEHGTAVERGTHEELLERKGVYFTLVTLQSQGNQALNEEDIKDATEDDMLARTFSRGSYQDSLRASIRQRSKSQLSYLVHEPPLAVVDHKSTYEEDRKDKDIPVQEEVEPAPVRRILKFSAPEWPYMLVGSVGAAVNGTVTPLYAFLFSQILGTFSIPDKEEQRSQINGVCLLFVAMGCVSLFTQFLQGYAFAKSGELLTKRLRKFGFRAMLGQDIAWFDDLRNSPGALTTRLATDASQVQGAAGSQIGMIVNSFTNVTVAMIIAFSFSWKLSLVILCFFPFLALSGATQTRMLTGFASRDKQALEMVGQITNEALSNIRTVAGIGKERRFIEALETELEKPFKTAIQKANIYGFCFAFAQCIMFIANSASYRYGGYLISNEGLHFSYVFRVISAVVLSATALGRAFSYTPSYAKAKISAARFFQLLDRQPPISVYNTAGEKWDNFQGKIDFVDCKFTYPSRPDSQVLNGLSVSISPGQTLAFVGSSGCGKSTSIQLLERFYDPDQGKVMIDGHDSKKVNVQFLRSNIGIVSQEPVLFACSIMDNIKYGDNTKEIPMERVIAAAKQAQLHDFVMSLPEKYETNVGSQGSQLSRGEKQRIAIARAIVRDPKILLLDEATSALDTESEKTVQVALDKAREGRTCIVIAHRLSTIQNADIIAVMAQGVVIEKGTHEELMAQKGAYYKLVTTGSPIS

[3] = biological target: ATP-binding cassette sub-family C member 2 (Homo sapiens, UniProt Q92887); assay: Inhibition of human MRP2 overexpressed in Sf9 cell membrane vesicles assessed as uptake of [3H]-estradiol-17beta-D-glucuronide in presence of ATP and GSH measured after 20 mins by membrane vesicle transport assay
ATP-binding cassette sub-family C member 2, sequence (Q92887 whole entry): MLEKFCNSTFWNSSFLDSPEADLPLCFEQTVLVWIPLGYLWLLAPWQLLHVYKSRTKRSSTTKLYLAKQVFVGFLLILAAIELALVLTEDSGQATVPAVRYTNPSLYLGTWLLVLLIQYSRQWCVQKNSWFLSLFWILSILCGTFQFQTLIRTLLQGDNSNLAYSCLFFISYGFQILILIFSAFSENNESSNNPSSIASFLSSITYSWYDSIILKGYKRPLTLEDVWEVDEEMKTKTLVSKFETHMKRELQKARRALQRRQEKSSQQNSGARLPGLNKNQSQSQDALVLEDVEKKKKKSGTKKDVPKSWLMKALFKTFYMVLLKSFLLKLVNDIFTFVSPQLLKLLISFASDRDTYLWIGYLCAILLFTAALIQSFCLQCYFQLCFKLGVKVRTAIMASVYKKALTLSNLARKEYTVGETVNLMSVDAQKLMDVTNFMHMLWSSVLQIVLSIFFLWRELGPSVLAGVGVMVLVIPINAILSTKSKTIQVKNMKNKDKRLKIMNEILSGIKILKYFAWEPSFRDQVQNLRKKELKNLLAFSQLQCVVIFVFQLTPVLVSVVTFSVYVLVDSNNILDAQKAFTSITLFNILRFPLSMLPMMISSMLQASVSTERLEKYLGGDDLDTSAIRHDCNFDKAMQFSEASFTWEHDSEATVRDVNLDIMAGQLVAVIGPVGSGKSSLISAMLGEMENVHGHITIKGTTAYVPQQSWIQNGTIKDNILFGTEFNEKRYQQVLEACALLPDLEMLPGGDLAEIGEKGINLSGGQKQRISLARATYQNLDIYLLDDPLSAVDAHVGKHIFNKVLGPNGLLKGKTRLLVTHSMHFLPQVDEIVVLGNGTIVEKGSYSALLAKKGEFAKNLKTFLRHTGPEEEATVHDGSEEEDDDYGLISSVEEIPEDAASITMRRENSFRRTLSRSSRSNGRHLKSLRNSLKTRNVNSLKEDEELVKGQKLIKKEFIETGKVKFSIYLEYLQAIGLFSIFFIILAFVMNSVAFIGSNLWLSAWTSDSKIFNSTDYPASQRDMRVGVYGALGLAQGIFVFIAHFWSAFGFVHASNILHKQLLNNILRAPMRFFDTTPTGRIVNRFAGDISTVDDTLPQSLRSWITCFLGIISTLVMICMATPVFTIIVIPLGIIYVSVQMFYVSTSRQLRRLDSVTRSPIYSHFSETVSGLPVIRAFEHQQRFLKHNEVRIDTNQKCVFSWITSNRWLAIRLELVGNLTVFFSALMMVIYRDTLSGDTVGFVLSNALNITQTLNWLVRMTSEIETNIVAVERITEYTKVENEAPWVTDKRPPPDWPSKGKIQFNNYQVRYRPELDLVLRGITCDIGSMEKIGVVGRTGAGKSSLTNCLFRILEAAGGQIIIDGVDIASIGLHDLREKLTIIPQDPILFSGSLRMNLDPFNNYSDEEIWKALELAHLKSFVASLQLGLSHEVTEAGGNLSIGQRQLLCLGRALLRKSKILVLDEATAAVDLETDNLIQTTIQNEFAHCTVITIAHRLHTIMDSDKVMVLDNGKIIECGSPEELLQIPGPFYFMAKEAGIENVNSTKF

Structure (SMILES) | IC50 [1] | IC50 [2] | IC50 (Bile salt export pump) | IC50 [3]
C[C@]12C/C(=C/O)C(=O)C[C@@H]1CC[C@@H]1[C@@H]2CC[C@@]2(C)[C@H]1CC[C@]2(C)O [OXYMETHOLONE] | > 133 µM | > 133 µM | 48.7 µM | > 133 µM
CCN1CCCC1CNC(=O)c1cc(S(=O)(=O)CC)c(N)cc1OC (stereo not drawn) [AMISULPRIDE] | > 133 µM | > 133 µM | > 133 µM | > 133 µM
NC(=O)N1c2ccccc2C=Cc2ccccc21 [CARBAMAZEPINE] | > 133 µM | > 133 µM | > 133 µM | > 133 µM
CCCCC[C@H](O)/C=C/[C@@H]1[C@@H](C/C=C\CCCC(=O)O)[C@@H](O)C[C@H]1O [DINOPROST TROMETHAMINE] | 7.1 µM | […] | […] | […]
COc1ccc(C(CN(C)C)C2(O)CCCCC2)cc1 (stereo not drawn) [VENLAFAXINE] | > 133 µM | > 133 µM | > 133 µM | > 133 µM
C=C[C@H]1C[N@@]2CC[C@H]1C[C@@H]2[C@@H](O)c1ccnc2ccc(OC)cc12 [QUINIDINE] | 45.8 µM | > 133 µM | > 133 µM | > 133 µM
CC1=C(/C=C/C(C)=C/C=C/C(C)=C/C(=O)O)C(C)(C)CCC1 [TRETINOIN] | > 133 µM | > 133 µM | > 133 µM | > 133 µM
O=NN(CCCl)C(=O)NC1CCCCC1 [LOMUSTINE] | > 133 µM | > 133 µM | > 133 µM | > 133 µM
Nc1nc2ccc(OC(F)(F)F)cc2s1 [RILUZOLE] | > 133 µM | > 133 µM | > 133 µM | > 133 µM
Nc1ncn([C@H]2C[C@H](O)[C@@H](CO)O2)c(=O)n1 [DECITABINE] | > 133 µM | > 133 µM | > 133 µM | > 133 µM
CCN(CC)C(=O)c1cccnc1 [NIKETHAMIDE] | > 133 µM | > 133 µM | > 133 µM | > 133 µM
COc1cc([C@@H]2c3cc4c(cc3[C@@H](O[C@@H]3O[C@@H]5CO[C@@H](C)O[C@H]5[C@H](O)[C@H]3O)[C@H]3COC(=O)[C@H]23)OCO4)cc(OC)c1OP(=O)(O)O [ETOPOSIDE PHOSPHATE] | > 133 µM | > 133 µM | > 133 µM | > 133 µM
Cc1cccc(Nc2cc(Cl)nc(SCC(=O)O)n2)c1C [PIRINIXIC ACID] | 44.9 µM | > 133 µM | 99 µM | > 133 µM
NC(N)=Nc1nc(CSCCC(N)=NS(N)(=O)=O)cs1 [FAMOTIDINE] | > 133 µM | > 133 µM | > 133 µM | > 133 µM
Cc1ccc(-c2nc3ccc(C)cn3c2CC(=O)N(C)C)cc1 | > 133 µM | > 133 µM | > 133 µM | > 133 µM
CN1C(C(=O)Nc2ccccn2)=C(O)c2sc(Cl)cc2S1(=O)=O [LORNOXICAM] | > 133 µM | > 133 µM | 7.56 µM | > 133 µM
CN(C)CCCN1c2ccccc2Sc2ccc(Cl)cc21 [CHLORPROMAZINE] | > 133 µM | > 133 µM | > 133 µM | > 133 µM
C[C@]12CC[C@H]3[C@@H](CC[C@@]45O[C@@H]4C(O)=C(C#N)C[C@]35C)[C@@H]1CC[C@@H]2O [TRILOSTANE] | > 133 µM | > 133 µM | > 133 µM | > 133 µM
Clc1ccc(CO/N=C(\Cn2ccnc2)c2ccc(Cl)cc2Cl)c(Cl)c1 [OXICONAZOLE NITRATE] | > 133 µM | > 133 µM | 49.3 µM | > 133 µM

Structure (SMILES) | IC50 [1] | IC50 [2] | IC50 (Bile salt export pump) | IC50 [3]
Cc1c(OCC(F)(F)F)ccnc1C[S@@+]([O-])c1nc2ccccc2[nH]1 [DEXLANSOPRAZOLE] | > 133 µM | > 133 µM | > 133 µM | > 133 µM
CC1(C)O[C@@H]2[C@@H](CO[C@@]3(COS(N)(=O)=O)OC(C)(C)O[C@@H]23)O1 [TOPIRAMATE] | > 133 µM | > 133 µM | > 133 µM | > 133 µM
O=C1c2c(O)cccc2Cc2cccc(O)c21 [ANTHRALIN] | > 133 µM | > 133 µM | > 133 µM | > 133 µM
CC[C@H]1OC(=O)[C@H](C)[C@@H](O[C@H]2C[C@@](C)(OC)[C@@H](O)[C@H](C)O2)[C@H](C)[C@@H](O[C@@H]2O[C@H](C)C[C@H](N(C)C)[C@H]2O)[C@](C)(OC)C[C@@H](C)C(=O)[C@H](C)[C@@H](O)[C@]1(C)O [CLARITHROMYCIN] | > 133 µM | > 133 µM | > 133 µM | > 133 µM
CC(C)N(CCC(C(N)=O)(c1ccccc1)c1ccccn1)C(C)C (stereo not drawn) [DISOPYRAMIDE] | > 133 µM | > 133 µM | > 133 µM | > 133 µM
CC(C)C(=O)OCC(=O)[C@@]12O[C@H](C3CCCCC3)O[C@@H]1C[C@H]1[C@@H]3CCC4=CC(=O)C=C[C@]4(C)[C@H]3[C@@H](O)C[C@@]12C [CICLESONIDE] | > 133 µM | > 133 µM | > 133 µM | > 133 µM
CN(C)c1ccc(O)c2c1C[C@H]1C[C@H]3[C@H](N(C)C)C(O)=C(C(N)=O)C(=O)[C@@]3(O)C(O)=C1C2=O [MINOCYCLINE HYDROCHLORIDE] | > 133 µM | > 133 µM | > 133 µM | > 133 µM
NC(=O)c1ncn([C@@H]2O[C@H](CO)[C@@H](O)[C@H]2O)c1O [MIZORIBINE] | > 133 µM | > 133 µM | > 133 µM | > 133 µM
Cc1ccnc2c1NC(=O)c1cccnc1N2C1CC1 [NEVIRAPINE] | > 133 µM | > 133 µM | > 133 µM | > 133 µM
COc1c(N2C[C@@H]3CCCN[C@@H]3C2)c(F)cc2c(=O)c(C(=O)O)cn(C3CC3)c12 [MOXIFLOXACIN HYDROCHLORIDE] | > 133 µM | > 133 µM | > 133 µM | > 133 µM
CC[C@]1(O)C[C@H]2CN(CCc3c([nH]c4ccccc34)[C@@](C(=O)OC)(c3cc4c(cc3OC)N(C=O)[C@H]3[C@@](O)(C(=O)OC)[C@H](OC(C)=O)[C@]5(CC)C=CCN6CC[C@]43[C@@H]65)C2)C1 [VINCRISTINE SULFATE] | > 133 µM | > 133 µM | > 133 µM | > 133 µM
O=C1Nc2ccc(Cl)cc2[C@@](C#CC2CC2)(C(F)(F)F)O1 [EFAVIRENZ] | > 133 µM | > 133 µM | > 133 µM | > 133 µM
O=c1c(O)c(-c2ccc(O)c(O)c2)oc2cc(O)cc(O)c12 [QUERCETIN] | 20.8 µM | > 133 µM | > 133 µM | > 133 µM
CCOc1cc2ncc(C#N)c(Nc3ccc(OCc4ccccn4)c(Cl)c3)c2cc1NC(=O)/C=C/CN(C)C [NERATINIB] | 23 µM | > 133 µM | 25 µM | > 133 µM
CN(C)CC[C@@H](c1ccc(Cl)cc1)c1ccccn1 [DEXCHLORPHENIRAMINE MALEATE] | > 133 µM | > 133 µM | > 133 µM | > 133 µM
COc1cc([C@@H]2c3cc4c(cc3[C@@H](O[C@@H]3O[C@@H]5CO[C@@H](c6cccs6)O[C@H]5[C@H](O)[C@H]3O)[C@H]3COC(=O)[C@H]23)OCO4)cc(OC)c1O [TENIPOSIDE] | 34.9 µM | 20.6 µM | > 133 µM | > 133 µM
O=C(NCCNCC(O)COc1ccc(O)cc1)N1CCOCC1 (stereo not drawn) [XAMOTEROL] | > 133 µM | > 133 µM | > 133 µM | > 133 µM
CC(C)Cn1cnc2c(N)nc3ccccc3c21 [IMIQUIMOD] | > 133 µM | > 133 µM | > 133 µM | > 133 µM
